# Results from patent publication US7291625B2, “Use of a vitamin combination for the treatment of pruritus and non-infective disorders involving itching and/or inflammation” (priority 1999, dated 2007).
# Where two headings read alike, the source gives them in different places.
# How the values were obtained:
# [1] = tested on: uremic pruritus and sine materia pruritus forms; assay: Clinical experimentation: systemic niacin or niacinamide alone at pellagra dosage in pruritus forms; conditions: for effectiveness in combating the pruritus forms: systemic administration alone at pellagra dosage, uremic and sine materia pruritus
# [2] = tested on: uremic pruritus and sine materia pruritus forms; conditions: human, in vivo
# [3] = systemic, 2 to 6 g per day, therapy of hyperlipidemia; cited from earlier work
# [4] = tested on: senile pruritus; assay: Clinical case reports: senile pruritus; format: in vivo, human
# Excerpt: (§1) It is advisable to take the medicament by the oral route, after the main meals, with abundant water (at least half a glass). In the event that the treatment is discontinued and the symptoms revert, it is necessary to start again from the 1st phase.
# 3rd case— subject with senile pruritus—The patient had been complaining for about 3 years of a diffused itching, which had become increasingly intense. At first, they consulted their physician, who addressed them to a dermatologist.
# The patient was then treated by oral administration of 50 mg of nicotinamide+2.5 mg of riboflavin twice daily. […] Thereafter, the therapy was reduced to half the dosage, for 15 days a month.
# 4th case— subject with senile pruritus—The patient had been suffering for about 2 years and a half from a diffused continuous itching at the torso and on the upper and lower limbs.
# The treatment was continued with half the dose for further 15 days and then it was finally discontinued.
# The treatment with half the dose was continued for 15 days, and then it was discontinued.
# 3rd case— subject with senile pruritus—The patient had been suffering for about one year from a diffused itching. […] Thereafter, the diagnosis of senile itching was made.
# [5] = tested on: anal and vulvar pruritus; assay: Clinical case reports: anal and vulvar pruritus; format: in vivo, human
# Excerpt: as §1
# As a first attempt, a gastroenterologist had been consulted for the anal itching, and thereafter a gynaecologist had been consulted for the vulvar itching.
# The treatment was continued for 12 more days, and then it was reduced to half the dosage, for 15 days a month.
# Then, the patient was given a therapy with 50 mg of nicotinamide twice daily, by oral administration, after the main meals. […] The patient continued to take 50 mg of nicotinamide daily, after dinner, for 15 days, and then they discontinued the treatment.
# The treatment was then continued for 15 more days, with half the dosage, and then finally discontinued.
# [6] = tested on: uremic pruritus; assay: Clinical case reports: uremic pruritus (renal dialysis, chronic renal failure or insufficiency); format: in vivo, human
# Description: In the treatment of uremic subjects who currently undergo dialysis the protocol is the same as for the 1st phase above, but the continuation of the treatment with half the dose will take place starting after each dialysis treatment (also in this case, after the meal and with abundant water).
# Thereafter, the patient was treated with 50 mg of nicotinamide+2.5 mg of riboflavin twice daily, by oral administration. […] The patient continued the same therapy for about 15 days, and thereafter the dosage was reduced to one-half, the administration occurring after the dialysis treatment. […]
# Lastly, they underwent an additional 3 hours dialysis treatment each week, with carbon filter, for four weeks on end.
# The treatment was started with 50 mg of nicotinamide twice daily, to be taken orally after the main meals. […] The patient continued to take 50 mg of nicotinamide after dinner for 15 more days, and then they took 50 mg of the same agent only on the day of the dialytic treatment. […]
compound,measurement,setting,value
"O=C(O)c1cccnc1 [niacin, 3-pyridinecarboxylic acid]",effectiveness in combating the pruritus forms,[1],not appreciably effective
same,side effects of flushing and itching,[2],does not lead to the undesired side effects of flushing and itching
same,adverse side effects at large doses,[3],"adverse side effects, including gastrointestinal disturbances (such as abdominal pain and nausea) hepatotoxicity, and, above all, flushing"
NC(=O)c1cccnc1 [nicotinamide],pruritus after 40 days,"[4]; series 2 case 4: senile pruritus, 50 mg nicotinamide alone twice daily oral",pruritus was quite mild
same,itching about 10 days after discontinuation,"[4]; series 2 case 4, nicotinamide alone",itching had started again to increase
same,itching after 45 days,"[4]; series 3 case 3: senile pruritus, 50 mg nicotinamide alone twice daily oral",itching had only slightly decreased
same,itching at subsequent monthly checks,"[4]; series 3 case 3, nicotinamide therapy continued",diffused moderate itching
same,itching after 60 days,"[5]; series 2 case 3: anal vulvar pruritus, 50 mg nicotinamide alone twice daily oral",itching was moderate
same,itching 15 days after discontinuation,"[5]; series 2 case 3, nicotinamide alone",itching started to increase again
same,symptoms after 2 months,"[5]; series 3 case 4: anal and vulvar pruritus, 50 mg nicotinamide alone twice daily oral",a decrease of the symptoms was detected
same,itching at subsequent monthly checks,"[5]; series 3 case 4, still taking 50 mg/day nicotinamide",still complained of a moderate itching
same,effectiveness in combating the pruritus forms,[1],not appreciably effective
same,side effects of flushing and itching,[1]; systemic administration alone at the dosage used for prevention and therapy of pellagra,does not lead to the undesired side effects of flushing and itching
same,pruritus after one month and a half,"[6]; series 2 case 1: person on renal dialysis, 50 mg nicotinamide alone twice daily oral",pruritus had sensibly decreased
same,itching at check-up after one month,"[6]; series 2 case 1, nicotinamide alone, reduced to 50 mg on dialysis days",still complained of some moderate itching
same,symptom after 45 days,"[6]; series 2 case 2: person on renal dialysis, 50 mg nicotinamide alone twice daily oral",appreciable reduction of the symptom
same,itching 15 days after discontinuation,"[6]; series 2 case 2, nicotinamide alone",itching had started again to gradually increase
same,itching after 35 days,"[6]; series 2 case 5: chronic renal insufficiency, 50 mg nicotinamide alone twice daily oral",some moderate itching
same,itching about 10 days after discontinuation,"[6]; series 2 case 5, nicotinamide alone",itching had started to increase again
same,itching after 65 days,"[6]; series 3 case 1: person on renal dialysis three times weekly, 50 mg nicotinamide alone twice daily oral",itching had only become milder without disappearing
same,pruritus at check-ups every 2 months,"[6]; series 3 case 1, 50 mg nicotinamide after each dialysis treatment",persistent pruritus of a reduced intensity
same,itching after 50 days,"[6]; series 3 case 2: renal insufficiency, 50 mg nicotinamide alone twice daily oral","itching had become milder, without totally disappearing"
same,itching at subsequent periodical checks,"[6]; series 3 case 2, continued 50 mg/day nicotinamide",moderate itching diffused on the whole body
same,adverse side effects at large doses,[3],"adverse side effects, including gastrointestinal disturbances (such as abdominal pain and nausea) hepatotoxicity, and, above all, flushing"
